Experimental data: patent US7279321B2, “Methods for increasing the resistance of a host cell to aromatic carboxylic acids” (priority 2003, dated 2007)

Legend:
[1] = test system: E. coli strain DPD2462 (DPD2444 yhcP− with pKK223-3 control plasmid); test: pHBA zone of growth inhibition, plasmid-carrying strains (Table 9); format: cell-based
From the text: (§1) Plasmids pDEW668, pDEW673, pDEW675, and a control plasmid, pTrcHis2TOPO®/lacZ (Invitrogen), were moved by transformation to E. coli strain DPD2433, selecting for Ampicillin resistance, to generate strains DPD3317, DPD2455, DPD2457, and DPD3316, respectively.
The YhcP-Left primer was designed to contain a HindIII site and the YhcP-Right primer was designed to contain an EcoRI site for directional cloning of the resultant PCR product. […] The product of the PCR reaction was digested with restriction enzymes EcoRI and HindIII. The restriction digestion also contained pKK223-3 at an approximate molar ratio of 2:1 (insert:vector). Following incubation at 37° C. for 1.5 hours, the enzymes were inactivated by incubation at 65° C. for 20 minutes. The enzymes were subsequently removed by use a Qiaquick PCR purification kit (Qiagen) according to the vendor's instructions. The purified restriction products were ligated using T4 DNA ligase at 16° C. overnight. Following ligation, PstI and SmaI digestions were used to linearize the vector without insert DNA. The DNA from this selection digestion was used for transformation of E. coli strain JM105 (Amersham Pharmacia Biotech Inc., Piscataway, N.J.) using selection for Ampicillin resistance. Plasmid DNA from individual transformants was digested with EcoRI and HindIII. […] This plasmid and others were placed in various host strains by transformation and selection for Ampicillin resistance.

[2] = test system: yhcRQP-luxCDABE gene fusion in strain DPD2437 (yhcS−); test: Bioluminescence response of yhcRQP-luxCDABE gene fusion; format: cell-based, E. coli; settings: LB pH 7.0, sodium salt
From the text: (§2) Plasmid pDEW655 was constructed by ligating an E. coli chromosomal segment between nucleotides 3385829 and 3386761 according to the E. coli genomic sequence, which contains the promoter region of the putative yhcRQP operon and the entire yhcR gene and the 5′ end of the yhcQ gene, to the luxCDABE genes parental plasmid, pDEW201 (Gonye et al. U.S. Patent Application Publication 20030219736). Thus, this gene fusion will report on expression of the yhcQ gene and accordingly any other genes cotranscribed with it. Plasmid pDEW655 was moved to E. coli strains MG1655 and DPD2433 by transformation, selecting for Ampicillin resistance to generate strains DPD2436 and DPD2437, respectively. The bioluminescent response of these two strains to pHBA was tested.

[3] = test system: yhcRQP-luxCDABE gene fusion in strain DPD2436 (yhcS+); test: as above; format: cell-based, E. coli; settings: LB pH 7.0, sodium salt
From the text: as §2

[4] = test system: E. coli strain DPD2444 (yhcP); test: Growth in LB medium in the presence of pHBA, scored visually; format: cell-based; also: key: ++++ indicates full turbidity; +++ indicates moderate, but visually less than full turbidity; + indicates very slight turbidity; − indicates no turbidity
From the text: (§3) Strain DPD1818 carries a to/C::miniTn10 mutation in the MG1655 background. It was constructed by transduction of E. coli MG1655 using P1clr100 Cm phage grown on E. coli strain DE112 (Van Dyk et al. Appl. Environ. Microbiol. 60:1414-1420 (1994)), which carries a tolC::miniTn10 mutation, and selection for tetracycline resistance. Strain DPD2444, described above, carries a yhcP::TN<Kan> mutation. Strain DP2446 carries both the tolC::miniTn10 and yhcP::TN<Kan>. This strain was constructed using by P1clr100Cm mediated transduction of DE112 with phage grown on strain DPD2443 and selection for kanamycin resistance. Each of these mutant strains was grown overnight in LB medium at 37° C. […] The final volume in the wells of a 96-well microplate was 100 μl and the final dilution of the inoculum was 1 to 1000. This microplate was covered and incubated at 37° C. for 7 hours and then incubated at room temperature for 3 days. The growth in each well was then scored visually.

[5] = test system: E. coli strain DPD2446 (tolC yhcP); test: as above; format: cell-based; also: key: ++++ indicates full turbidity; +++ indicates moderate, but visually less than full turbidity; + indicates very slight turbidity; − indicates no turbidity
From the text: as §3

[6] = test system: E. coli strain MG1655 (+); test: as above; format: cell-based; also: key: ++++ indicates full turbidity; +++ indicates moderate, but visually less than full turbidity; + indicates very slight turbidity; − indicates no turbidity
From the text: as §3

[7] = test system: E. coli strain DPD1818 (tolC); test: as above; format: cell-based; also: key: ++++ indicates full turbidity; +++ indicates moderate, but visually less than full turbidity; + indicates very slight turbidity; − indicates no turbidity
From the text: as §3

[8] = test system: E. coli strain DPD2433 (yhcS−); test: pHBA zone of growth inhibition on solidified Vogel-Bonner medium; format: cell-based; settings: sodium salt of pHBA 80 μmoles/disk, Vogel-Bonner with glucose
Description: This was tested by measuring the size of the zone of growth inhibition and scoring the degree of growth within the zones resulting from the sodium salt of pHBA (80 μmoles/disk) on solidified Vogel-Bonner medium with glucose as the carbon source (Table 5).

[9] = test system: E. coli strain DPD3317 (DPD2433 yhcS− with pDEW668 yhcRQP); format: cell-based; settings: sodium salt of pHBA 80 μmoles/disk
From the text: as §1

[10] = test system: E. coli strain DPD2455 (DPD2433 yhcS− with pDEW673 yhcQP); format: cell-based; settings: sodium salt of pHBA 80 μmoles/disk
From the text: as §1

[11] = test system: E. coli strain DPD3316 (DPD2433 yhcS− with pTrcHis2TOPO®/lacZ control); format: cell-based; settings: sodium salt of pHBA 80 μmoles/disk
From the text: as §1

[12] = test system: E. coli strain DPD2457 (DPD2433 yhcS− with pDEW675 yhcRQ); format: cell-based; settings: sodium salt of pHBA 80 μmoles/disk
From the text: as §1

[13] = test system: E. coli strain DPD2443 (yhcP::TN<Kan> of DH5αE); test: zone of growth inhibition test on LB agar plates; format: cell-based; settings: disk with 90 μmol pHBA sodium salt, 24 hr at 37° C.
Description: (§4) A zone of growth inhibition test was done using 0.1 ml of overnight cultures in LB medium plated onto LB agar plates using 2.5 ml LB soft agar.

[14] = test system: E. coli strain DH5αE (parental); test: zone of growth inhibition test on LB agar plates; format: cell-based; settings: disk with 90 μmol pHBA sodium salt, 24 hr at 37° C.
Description: as §4

[15] = Vogel-Bonner 0.4% glucose, average of two experiments

SMILES: O=C(O)c1ccc(O)cc1 [pHBA, para-hydroxybenzoic acid]
- clarity of pHBA zone of growth inhibition [1]: clear
- pHBA zone of growth inhibition, mm diameter ([1]; tested as for Table 8): 22.8 mm
- RLU ([2]; [pHBA] 1.6, thirty minutes): 1.02 RLU
- RLU ([2]; [pHBA] 3.1, thirty minutes): 1.16 RLU
- RLU ([2]; [pHBA] 6.2, thirty minutes): 1.42 RLU
- RLU ([2]; [pHBA] 12.5, thirty minutes): 1.82 RLU
- RLU ([2]; [pHBA] 25, thirty minutes): 1.59 RLU
- RLU ([2]; [pHBA] 50, thirty minutes): 0.614 RLU
- RLU ([2]; [pHBA] 100, thirty minutes): 0.045 RLU
- RLU ([3]; [pHBA] 1.6, thirty minutes): 6.72 RLU
- RLU ([3]; [pHBA] 3.1, thirty minutes): 10.2 RLU
- RLU ([3]; [pHBA] 6.2, thirty minutes): 16.2 RLU
- RLU ([3]; [pHBA] 12.5, thirty minutes): 30.8 RLU
- RLU ([3]; [pHBA] 25, thirty minutes): 66.6 RLU
- RLU ([3]; [pHBA] 50, thirty minutes): 91.7 RLU
- RLU ([3]; [pHBA] 100, thirty minutes): 0.437 RLU
- Growth in LB medium for 3 days at room temperature with pHBA ([4]; 25 mM pHBA sodium salt): ++++
- Growth in LB medium for 3 days at room temperature with pHBA ([4]; 50 mM pHBA sodium salt): ++++
- Growth in LB medium for 3 days at room temperature with pHBA ([4]; 100 mM pHBA sodium salt): −
- Growth in LB medium for 3 days at room temperature with pHBA ([4]; 200 mM pHBA sodium salt): −
- Growth in LB medium for 3 days at room temperature with pHBA ([5]; 25 mM pHBA sodium salt): ++++
- Growth in LB medium for 3 days at room temperature with pHBA ([5]; 50 mM pHBA sodium salt): +
- Growth in LB medium for 3 days at room temperature with pHBA ([5]; 100 mM pHBA sodium salt): −
- Growth in LB medium for 3 days at room temperature with pHBA ([5]; 200 mM pHBA sodium salt): −
- Growth in LB medium for 3 days at room temperature with pHBA ([6]; 25 mM pHBA sodium salt): ++++
- Growth in LB medium for 3 days at room temperature with pHBA ([6]; 50 mM pHBA sodium salt): ++++
- Growth in LB medium for 3 days at room temperature with pHBA ([6]; 100 mM pHBA sodium salt): +++
- Growth in LB medium for 3 days at room temperature with pHBA ([6]; 200 mM pHBA sodium salt): −
- Growth in LB medium for 3 days at room temperature with pHBA ([7]; 25 mM pHBA sodium salt): ++++
- Growth in LB medium for 3 days at room temperature with pHBA ([7]; 50 mM pHBA sodium salt): ++++
- Growth in LB medium for 3 days at room temperature with pHBA ([7]; 100 mM pHBA sodium salt): +
- Growth in LB medium for 3 days at room temperature with pHBA ([7]; 200 mM pHBA sodium salt): −
- degree of growth within the pHBA zone of growth inhibition [8]: clear
- pHBA zone of growth inhibition, mm diameter ([8]; average of two experiments): 20.2 mm
- clarity of pHBA zone of growth inhibition [9]: turbid
- pHBA zone of growth inhibition, mm diameter [9, 15]: 9.8 mm
- clarity of pHBA zone of growth inhibition [10]: turbid
- pHBA zone of growth inhibition, mm diameter [10, 15]: 9.5 mm
- clarity of pHBA zone of growth inhibition [11]: clear
- pHBA zone of growth inhibition, mm diameter [11, 15]: 23.5 mm
- clarity of pHBA zone of growth inhibition [12]: slightly turbid
- pHBA zone of growth inhibition, mm diameter [12, 15]: 17.0 mm
- pHBA zone of growth inhibition, mm diameter [13]: 13.0 mm
- pHBA zone of growth inhibition, mm diameter [14]: 9.0 mm
